These results are taken from patent US3996263A, “9-Oxo-11α-methyl-15.EPSILON.-hyroxyprost-13(trans)-enoic acid derivatives and process for the preparaion thereof” (priority 1975, dated 1976).

Usually ED50 stands for the dose at which the effect has come halfway, by size or by number of responders.

Series [1] relates to stress-induced ulceration in rats. Kind of series: Inhibition of the stress-induced ulceration by prostaglandins, rats. Type of series: in vivo, Donryu strain male rats. The settings on record: for Inhibitory ratio (%): stress 8 hr at 23° C; for anti-stress ulcer potency relative to Compound C / anti-stress ulcer activity compared with PGE1 / anti-stress ulcer activity compared with PGE2: oral; for anti-stress ulcer potency relative to Compound C: versus Compound C; for anti-stress ulcer activity compared with PGE1: versus PGE1; for anti-stress ulcer activity compared with PGE2: versus PGE2. As to the method: The method employed for the production and evaluation of stress ulcer was essentially same as described by Takagi and Okabe in Journal of Pharmacology vol. 18, pages 9-18 (Japan). Donryu strain male rats, 200 - 230 g in weight, were used. Animals were placed in the stress cage and immersed in a water bath kept at 23° C for 8 hr to the height of the xiphoid of the animal. At the end of the stress, the animals were killed by a blow, and stomach was removed, inflated with 10 ml of 1% formalin solution and placed into 1% formalin solution. Thereafter the stomach was cut along the greater curvature and examined for lesions macroscopically. The ulcer index was calculated as the sum of the length of each lesion in the stomach. Inhibitory ratio of ulceration was calculated for each dose. The test drugs were dissolved into 0.4% Tween 80 solution with aid of an ultrasonicator and administered orally (0.2 ml/100 g) immediately before the stress.

Series [2] concerns indomethacin-induced gastric ulceration in rats. Kind of series: Inhibition of indomethacin-induced gastric ulceration by prostaglandins, rats. Type of series: in vivo, Sprague-Dawley strain male rats. The settings on record: for Inhibitory ratio (%): 5 hours; for ED50: Rattus norvegicus, po, 5 h, p.o., indomethacin 30 mg/kg i.p., read-out: ED50 (50% inhibition of the ulcer formation). How it is done:
The method employed for the production and evaluation of indomethacin-induced ulcers was essentially same as described by Lee, Mollison and Cheng in Archives Internationales de Pharmacodynamie et de Therapie, vol. 191, page 370 - 377 and by Lippmann in Prostaglandins, vol. 7, page 1 - 10. Sprague-Dawley strain male rats weighing 200 - 220 g were fasted 20 hours with free access to water until the start of experiment. Indomethacin was suspended in 0.4% Tween 80 (surface active agent, product of Atlas Powder Co. U.S.A.) solution and given intraperitoneally into the rats at a dose of 30 mg/kg body weight. The test drugs were dissolved in physiological saline with aid of an ultrasonicator and administered perorally immidiately after the administration of indomethacin. The animals were killed 5 hours later and the ulcer formation in the glandular portion of the stomach was determined.

For series [3] the following is noted: cited from earlier work.
The next series deals with gastric secretion. The settings on record: German Patent Offenlegungsschrift 2,313,868; cited from earlier work.
In another series the test system is intestinal tube. The settings on record: stated for prior prostaglandins; cited from earlier work.
The conditions of series [4]: stated for prior prostaglandins; cited from earlier work.
A short description of another series: vasodepressor activity. The format is in vivo. The settings on record: in words.
The next series can be described thus: diarrheal activity. Type of series: in vivo. As to conditions: in words.

For `CCCCC(C)(C)[C@H](O)/C=C/[C@H]1[C@H](C)CC(=O)[C@@H]1CCCCCCC(=O)O` (relative stereo) [Compound A, 9-Oxo-11α,16,16-trimethyl-15α-hydroxyprost-13(trans)-enoic acid], the “Inhibitory ratio (%)” value in series [1] (0.3 mg/kg p.o.) is recorded as 12%; in series [1] (1.0 mg/kg p.o.), 73%; in series [2] (0.25 mg/kg p.o.), 63%; in series [2] (0.50 mg/kg p.o.), 71%. The “anti-stress ulcer potency relative to Compound C” value in series [1] is reported as “more than 10 times”. Further, the “anti-stress ulcer activity compared with PGE1” value in series [1] is “significantly more potent than that of PGE1”. Moreover, in series [1], the “anti-stress ulcer activity compared with PGE2” value is “equally potent as or slightly more potent than that of PGE2”. Besides, in series [2], the 50% effective dose (ED50) was 0.16 mg/kg.
In the case of `CCCCC(C)(C)[C@H](O)/C=C/[C@H]1[C@H](C)CC(=O)[C@@H]1CCCCCCC(=O)OC` (relative stereo) [Compound B, Methyl 9-oxo-11α,16,16-trimethyl-15α-hydroxyprost-13(trans)-enoate], the “Inhibitory ratio (%)” value in series [1] (0.3 mg/kg p.o.) is listed as 11%; in series [1] (1.0 mg/kg p.o.), 92%; in series [2] (0.25 mg/kg p.o.), 49%; in series [2] (0.50 mg/kg p.o.), 67%. Besides, the “anti-stress ulcer potency relative to Compound C” value in series [1] was “more than 10 times”. Moreover, in series [1], the “anti-stress ulcer activity compared with PGE1” value is reported as “significantly more potent than that of PGE1”. Also, in series [1], the “anti-stress ulcer activity compared with PGE2” value was “equally potent as or slightly more potent than that of PGE2”. In addition, the 50% effective dose (ED50) in series [2] amounted to 0.26 mg/kg.
With `CCCCC[C@H](O)/C=C/[C@H]1[C@H](C)CC(=O)[C@@H]1CCCCCCC(=O)O` (relative stereo) [Compound C, 9-Oxo-11α-methyl-15α-hydroxyprost-13(trans)-enoic acid], the “Inhibitory ratio (%)” value in series [1] (5.0 mg/kg p.o.) is given as 9%; in series [1] (10 mg/kg p.o.) it was 40%; in series [2] (1.25 mg/kg p.o.) it was 52%; in series [2] (2.5 mg/kg p.o.), 68%. In addition, the median effective dose (ED50) in series [2] came out at 1.18 mg/kg.
As for `CCCCC[C@H](O)/C=C/[C@H]1[C@@H](C)CC(=O)[C@@H]1CCCCCCC(=O)O` (relative stereo) [Compound D, 9-Oxo-11β-methyl-15α-hydroxyprost-13(trans)-enoic acid, reference compound], the “Inhibitory ratio (%)” value in series [2] (1.25 mg/kg p.o.) was 43%; in series [2] (2.5 mg/kg p.o.), 61%. In addition, the ED50 in series [2] turned out to be 1.64 mg/kg.
As to `CCCCCC(O)/C=C/C1C(C)CC(=O)C1CCCCCCC(=O)O` (stereo not drawn) [9-oxo-11β-methyl-15α(or β)-hydroxyprost-13(trans)-enoic acid], the “anti-ulcerogenic activity compared with prostaglandins E1 and E2” value in series [3] (versus prostaglandins E1 and E2) is “extremely lower than that of prostaglandins E1 and E2”. The “inhibition of gastric secretion” value in the series on gastric secretion is recorded as “inhibit gastric secretion”.
With `CCCCC[C@H](O)/C=C/[C@H]1[C@H](O)CC(=O)[C@@H]1CCCCCCC(=O)O` [PGE1], the intestinal tube-contracting activity result in the series on intestinal tube is “potent hypotensive and intestinal tube-contracting activities”.
As to `CCCCC[C@H](O)/C=C/[C@H]1[C@H](O)CC(=O)[C@@H]1C/C=C\CCCC(=O)O` [PGE2, reference compound], in the series with intestinal tube, the intestinal tube-contracting activity entry is “potent hypotensive and intestinal tube-contracting activities”. Also, the “Inhibitory ratio (%)” value came out at 17% in series [1] (0.3 mg/kg p.o.), 60% in series [1] (1.0 mg/kg p.o.), 57% in series [2] (0.05 mg/kg p.o.) and 79% in series [2] (0.25 mg/kg p.o.). Also, the hypotensive activity result in series [4] is listed as “potent hypotensive”. Besides, the anti-ulcerogenic effects entry in series [3] (U.S. Pat. No. 3,781,429, Prostaglandins 1974, 6, 523-532) is reported as “anti-ulcerogenic effects”. Moreover, the vasodepressor activity entry in “vasodepressor activity” is listed as “vasode-pressor activity”. Moreover, in series [2] (PGE2 versus compound A), the “potency relative to compound A in inhibition of the indomethacin-induced ulcer formation” value was “approximately 5 times”. Further, the 50% effective dose (ED50) in series [2] worked out at 0.03 mg/kg. Moreover, the “diarrhea (side effect)” value in the series “diarrheal activity” was “exhibits various side effects including diarrhea”.
